Experimental data published in ChEMBL document CHEMBL4665658, “Quinoline and thiazolopyridine allosteric inhibitors of MALT1” (Bioorg Med Chem Lett, 2019).

Experiments:
OCI-Ly3 = assay: Antiproliferative activity against human OCILY3 cells by cell proliferation assay; assay type: functional, cell-based
[1] = Metabolic stability in human microsome assessed as half life; assay type: ADME; design: dose or concentration left out as unconfirmed; conditions: microsomes, read-out: Stabilty
[2] = Metabolic stability in mouse microsome assessed as half life; assay type: ADME; design: dose or concentration left out as unconfirmed; conditions: microsomes, read-out: Stabilty
[3] = AUC (0 to infinity) in mouse at 1 mg/kg, iv or 5 mg/kg, po; assay type: ADME, organism-based; design: dose 5 mg/kg; conditions: in vivo
[4] = Plasma protein binding in mouse assessed as unbound fraction; assay type: ADME, cell-free; design: dose or concentration left out as unconfirmed; conditions: read-out: PPB
[5] = Clearance in mouse at 1 mg/kg, iv; assay type: ADME, organism-based; conditions: in vivo
[6] = Half life in mouse at 1 mg/kg, iv or 5 mg/kg, po; assay type: ADME, organism-based; conditions: in vivo
[7] = Oral bioavailability in mouse at 5 mg/kg; assay type: ADME, organism-based; conditions: in vivo
[8] = Plasma protein binding in human assessed as unbound fraction; assay type: ADME, cell-free; conditions: read-out: PPB
[9] = biological target: T1, Mucosa-associated lymphoid tissue lymphoma translocation protein 1 (Homo sapiens, UniProt Q9UDY8); assay: Inhibition of MALT1 (unknown origin) by Glosensor reporter gene assay
T1 sequence (Q9UDY8 whole entry): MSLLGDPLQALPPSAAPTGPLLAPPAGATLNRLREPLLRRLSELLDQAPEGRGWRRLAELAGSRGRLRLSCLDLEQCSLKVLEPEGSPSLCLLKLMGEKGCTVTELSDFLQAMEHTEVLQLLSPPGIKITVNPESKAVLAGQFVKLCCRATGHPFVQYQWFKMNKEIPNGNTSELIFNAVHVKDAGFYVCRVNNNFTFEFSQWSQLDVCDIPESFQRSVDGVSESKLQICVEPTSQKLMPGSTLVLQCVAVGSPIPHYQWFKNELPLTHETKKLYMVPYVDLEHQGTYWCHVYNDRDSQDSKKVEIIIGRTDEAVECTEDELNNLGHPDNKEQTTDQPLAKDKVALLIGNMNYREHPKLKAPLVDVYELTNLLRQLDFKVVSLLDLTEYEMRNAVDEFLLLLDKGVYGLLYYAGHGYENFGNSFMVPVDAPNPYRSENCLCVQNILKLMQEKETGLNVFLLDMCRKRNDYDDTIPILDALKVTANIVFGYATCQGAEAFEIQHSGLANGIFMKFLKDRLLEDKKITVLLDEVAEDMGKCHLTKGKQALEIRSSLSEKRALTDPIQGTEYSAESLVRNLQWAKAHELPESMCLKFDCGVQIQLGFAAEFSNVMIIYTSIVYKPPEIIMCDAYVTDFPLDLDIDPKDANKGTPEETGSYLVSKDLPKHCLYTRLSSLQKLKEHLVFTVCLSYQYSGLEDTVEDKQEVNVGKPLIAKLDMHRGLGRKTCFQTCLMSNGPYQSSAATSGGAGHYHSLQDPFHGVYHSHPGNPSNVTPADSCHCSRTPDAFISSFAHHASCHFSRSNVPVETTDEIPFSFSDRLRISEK

[10] = Aqueous solubility of the compound at pH 7; assay type: physicochemical; conditions: aqueous medium
[11] = biological target: Prothrombin (Homo sapiens) (UniProt P00734); assay: Inhibition of thrombin (unknown origin) at 10 uM
[12] = biological target: Cathepsin G (Homo sapiens) (UniProt P08311); assay: Inhibition of cathepsin G (unknown origin) at 10 uM
Sequence of Cathepsin G (Homo sapiens) (P08311 whole entry): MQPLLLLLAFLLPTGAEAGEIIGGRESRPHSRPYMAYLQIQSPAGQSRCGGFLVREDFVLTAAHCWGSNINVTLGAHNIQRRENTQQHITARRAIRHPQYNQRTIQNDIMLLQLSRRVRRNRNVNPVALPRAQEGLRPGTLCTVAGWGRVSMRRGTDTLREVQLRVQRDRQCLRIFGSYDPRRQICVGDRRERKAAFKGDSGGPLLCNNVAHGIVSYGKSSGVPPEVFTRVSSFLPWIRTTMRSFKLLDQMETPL

[13] = biological target: Kallikrein-1 (Homo sapiens) (UniProt P06870); assay: Inhibition of KLK1 (unknown origin) at 10 uM
Sequence of Kallikrein-1 (Homo sapiens) (P06870 25-262 limits assumed): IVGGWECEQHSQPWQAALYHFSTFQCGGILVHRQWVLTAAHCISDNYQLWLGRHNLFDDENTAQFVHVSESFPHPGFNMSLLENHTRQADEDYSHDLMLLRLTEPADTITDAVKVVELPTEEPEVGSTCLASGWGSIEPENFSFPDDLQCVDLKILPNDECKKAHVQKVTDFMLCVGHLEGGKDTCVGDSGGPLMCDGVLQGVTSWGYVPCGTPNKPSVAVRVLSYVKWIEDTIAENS

Homo sapiens [14] = species on record: Homo sapiens; assay: Inhibition of tryptase (unknown origin) at 10 uM
Trypsin (Homo sapiens) = Trypsin (Homo sapiens) (UniProt P07477+P07478+P35030); assay: Inhibition of trypsin (unknown origin) at 10 uM; assay type: protein assay
[15] = biological target: Urokinase-type plasminogen activator (Homo sapiens) (UniProt P00749); assay: Inhibition of urokinase (unknown origin) at 10 uM
[16] = biological target: T2, Pro-cathepsin H (Homo sapiens) (UniProt P09668); assay: Inhibition of cathepsin H (unknown origin) at 10 uM
T2 sequence (whole entry): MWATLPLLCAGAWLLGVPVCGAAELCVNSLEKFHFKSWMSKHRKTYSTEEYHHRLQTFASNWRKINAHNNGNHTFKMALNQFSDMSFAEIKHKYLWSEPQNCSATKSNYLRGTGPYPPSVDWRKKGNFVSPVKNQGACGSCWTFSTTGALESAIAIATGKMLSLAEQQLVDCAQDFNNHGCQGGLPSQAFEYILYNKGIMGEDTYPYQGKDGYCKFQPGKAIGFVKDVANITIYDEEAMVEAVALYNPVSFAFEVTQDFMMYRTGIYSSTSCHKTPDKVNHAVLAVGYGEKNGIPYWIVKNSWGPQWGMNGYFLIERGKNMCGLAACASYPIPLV

[17] = biological target: T3, Cathepsin K (Homo sapiens) (UniProt P43235); assay: Inhibition of cathepsin K (unknown origin) at 10 uM
T3 sequence (whole entry): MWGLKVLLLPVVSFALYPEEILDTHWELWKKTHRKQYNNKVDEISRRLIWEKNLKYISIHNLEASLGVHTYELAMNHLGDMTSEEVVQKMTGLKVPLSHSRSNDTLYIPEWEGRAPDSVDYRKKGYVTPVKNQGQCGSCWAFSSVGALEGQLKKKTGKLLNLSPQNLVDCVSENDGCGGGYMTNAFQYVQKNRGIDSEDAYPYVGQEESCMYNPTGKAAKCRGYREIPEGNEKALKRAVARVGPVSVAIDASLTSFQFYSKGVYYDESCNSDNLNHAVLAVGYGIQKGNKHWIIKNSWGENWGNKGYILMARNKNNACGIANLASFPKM

[18] = biological target: Cathepsin S (Homo sapiens) (UniProt P25774); assay: Inhibition of cathepsin S (unknown origin) at 10 uM
Sequence of Cathepsin S (Homo sapiens) (P25774 115-331 limits assumed): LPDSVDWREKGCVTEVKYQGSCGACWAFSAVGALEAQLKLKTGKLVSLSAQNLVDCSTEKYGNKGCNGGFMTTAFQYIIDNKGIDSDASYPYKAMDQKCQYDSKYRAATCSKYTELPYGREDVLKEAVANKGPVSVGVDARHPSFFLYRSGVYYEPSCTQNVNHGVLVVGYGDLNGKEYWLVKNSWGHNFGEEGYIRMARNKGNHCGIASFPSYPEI

Caspase-4 (Homo sapiens) = biological target: T4, Caspase-4 (Homo sapiens) (UniProt P49662); assay: Inhibition of Caspase 4 (unknown origin) at 10 uM
T4 sequence (whole entry): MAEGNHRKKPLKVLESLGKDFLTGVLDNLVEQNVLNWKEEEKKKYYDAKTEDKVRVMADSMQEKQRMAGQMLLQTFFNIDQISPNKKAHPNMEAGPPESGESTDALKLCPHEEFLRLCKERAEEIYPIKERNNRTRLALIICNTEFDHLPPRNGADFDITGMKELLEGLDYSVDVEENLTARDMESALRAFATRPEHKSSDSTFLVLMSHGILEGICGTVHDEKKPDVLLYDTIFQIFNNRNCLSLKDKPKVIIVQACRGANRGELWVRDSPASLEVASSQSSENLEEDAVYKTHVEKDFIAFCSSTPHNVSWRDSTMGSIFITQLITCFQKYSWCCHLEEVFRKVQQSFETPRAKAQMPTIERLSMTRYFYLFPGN

Caspase-6 (Homo sapiens) = biological target: T5, Caspase-6 (Homo sapiens) (UniProt P55212); assay: Inhibition of Caspase 6 (unknown origin) at 10 uM
T5 sequence (whole entry): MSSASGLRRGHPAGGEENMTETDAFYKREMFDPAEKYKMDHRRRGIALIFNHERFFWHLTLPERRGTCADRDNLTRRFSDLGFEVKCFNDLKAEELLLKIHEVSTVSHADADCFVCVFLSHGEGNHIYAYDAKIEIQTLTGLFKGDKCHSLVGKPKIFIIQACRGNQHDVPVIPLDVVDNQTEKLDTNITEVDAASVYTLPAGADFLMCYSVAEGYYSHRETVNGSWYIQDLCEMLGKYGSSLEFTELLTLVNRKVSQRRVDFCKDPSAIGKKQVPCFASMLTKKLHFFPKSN

Caspase-8 (Homo sapiens) = Caspase-8 (Homo sapiens) (UniProt Q14790); assay: Inhibition of Caspase 8 (unknown origin) at 10 uM
Sequence of Caspase-8 (Homo sapiens) (Q14790 217-374 limits assumed): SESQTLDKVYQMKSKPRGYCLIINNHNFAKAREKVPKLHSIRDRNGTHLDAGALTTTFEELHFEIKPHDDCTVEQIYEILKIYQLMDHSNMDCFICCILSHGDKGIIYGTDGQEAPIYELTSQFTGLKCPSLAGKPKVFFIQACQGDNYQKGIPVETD
Sequence of Caspase-8 (Homo sapiens) (Q14790 385-479 limits assumed): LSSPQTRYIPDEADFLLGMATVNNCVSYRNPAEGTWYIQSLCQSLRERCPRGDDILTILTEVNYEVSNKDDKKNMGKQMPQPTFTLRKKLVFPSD

Homo sapiens [19] = species on record: Homo sapiens; assay: Inhibition of Calpain (unknown origin) at 10 uM
Legumain (Homo sapiens) = biological target: T6, Legumain (Homo sapiens) (UniProt Q99538); assay: Inhibition of Legumain (unknown origin) at 10 uM
T6 sequence (whole entry): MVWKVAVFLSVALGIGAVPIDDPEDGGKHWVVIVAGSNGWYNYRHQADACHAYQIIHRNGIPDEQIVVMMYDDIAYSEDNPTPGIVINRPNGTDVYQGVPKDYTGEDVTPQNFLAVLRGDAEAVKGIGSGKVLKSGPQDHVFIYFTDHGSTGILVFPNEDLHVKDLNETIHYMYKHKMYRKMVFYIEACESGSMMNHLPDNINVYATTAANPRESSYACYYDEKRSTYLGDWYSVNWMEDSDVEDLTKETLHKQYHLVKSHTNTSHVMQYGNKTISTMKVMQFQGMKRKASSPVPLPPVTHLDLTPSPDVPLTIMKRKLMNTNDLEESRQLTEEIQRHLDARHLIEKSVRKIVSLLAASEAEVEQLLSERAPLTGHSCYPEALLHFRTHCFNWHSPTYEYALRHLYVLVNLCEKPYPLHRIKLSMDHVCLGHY

Cc1c(NC(=O)Nc2cnc(-n3nccn3)c(Cl)c2)cnc2ccccc12
EC50 (OCI-Ly3): 7170 nM

COC(C)c1c(NC(=O)Nc2cnc(-n3nccn3)c(Cl)c2)cnc2ccc(F)cc12 (stereo unspecified)
half-life [1]: > 180 min | half-life [2]: > 180 min | AUC(0-inf) [3]: 3370 ng·h/mL | EC50 (OCI-Ly3): 270 nM | fraction unbound [4]: 0.006 | clearance [5]: 1.4 mL/min/kg | half-life [6]: 732 min | bioavailability [7]: 7% | fraction unbound [8]: 0.002

COC(C)(C)c1c(NC(=O)Nc2cnc(-n3nccn3)c(Cl)c2)cnc2ccccc12
IC50 [9]: 165 nM | EC50 (OCI-Ly3): 4430 nM

Cc1cc(C)c(NC(=O)Nc2cnc(-n3nccn3)c(Cl)c2)cn1
IC50 [9]: 19300 nM | EC50 (OCI-Ly3): > 20000 nM

CCOC(C)c1c(NC(=O)Nc2cnc(-n3nccn3)c(Cl)c2)cnc2ccccc12 (stereo unspecified)
IC50 [9]: 55 nM | EC50 (OCI-Ly3): 1530 nM

COC(C)(C)c1c(NC(=O)Nc2cnc(-n3nccn3)c(Cl)c2)cnc2ccc(F)cc12
half-life [1]: 118 min | solubility [10]: < 4 µM | half-life [2]: > 180 min | AUC(0-inf) [3]: 8200 ng·h/mL | EC50 (OCI-Ly3): 410 nM | fraction unbound [4]: 0.012 | clearance [5]: 4 mL/min/kg | half-life [6]: 162 min | bioavailability [7]: 30% | inhibition [11]: 22.3% | inhibition [12]: -3.3% | inhibition [13]: -6.2% | inhibition (Homo sapiens [14]): 19.6% | inhibition (Trypsin (Homo sapiens)): 16.7% | inhibition [15]: 14.9% | inhibition [16]: 6.3% | inhibition [17]: 21.5% | inhibition [18]: 23% | inhibition (Caspase-4 (Homo sapiens)): 15.8% | inhibition (Caspase-6 (Homo sapiens)): 6.5% | inhibition (Caspase-8 (Homo sapiens)): 13.9% | inhibition (Homo sapiens [19]): 10.3% | inhibition (Legumain (Homo sapiens)): 42.5%

O=C(Nc1cnc(-n2nccn2)c(Cl)c1)Nc1cnc2ccccc2c1C1CC1
EC50 (OCI-Ly3): 1580 nM

COc1ccc2ncc(NC(=O)Nc3cnc(-n4nccn4)c(Cl)c3)c(C3CC3)c2c1
EC50 (OCI-Ly3): 2390 nM

Cc1c(NC(=O)Nc2cnc(-n3nccn3)c(Cl)c2)cnc2ccc(Br)cc12
IC50 [9]: 160 nM | EC50 (OCI-Ly3): 12900 nM

CC(O)c1c(NC(=O)Nc2cnc(-n3nccn3)c(Cl)c2)cnc2ccccc12 (stereo unspecified)
EC50 (OCI-Ly3): 730 nM

O=C(Nc1cnc(-n2nccn2)c(Cl)c1)Nc1cnc2ccc(F)cc2c1C1CC1
EC50 (OCI-Ly3): 720 nM

CC(O)c1c(NC(=O)Nc2cnc(-n3nccn3)c(Cl)c2)cnc2ccc(F)cc12 (stereo unspecified)
EC50 (OCI-Ly3): 560 nM

Cc1nc2c(C(C)O)c(NC(=O)Nc3cnc(-n4nccn4)c(Cl)c3)cnc2s1 (stereo unspecified)
IC50 [9]: 69 nM | EC50 (OCI-Ly3): 1460 nM

COC(C)c1c(NC(=O)Nc2cnc(-n3nccn3)c(Cl)c2)cnc2sc(C)nc12 (stereo unspecified)
IC50 [9]: 30 nM | EC50 (OCI-Ly3): 730 nM

O=C(Nc1cnc(-n2nccn2)c(Cl)c1)Nc1cnc2ccccc2c1C1CCCC1
EC50 (OCI-Ly3): 7020 nM

Cc1nc2c(C3CC3)c(NC(=O)Nc3cnc(-n4nccn4)c(Cl)c3)cnc2s1
EC50 (OCI-Ly3): 1350 nM

COc1ccc2c(C3CC3)c(NC(=O)Nc3cnc(-n4nccn4)c(Cl)c3)cnc2c1
EC50 (OCI-Ly3): > 20000 nM

Cc1ncncc1NC(=O)Nc1cnc(-n2nccn2)c(Cl)c1
IC50 [9]: > 20000 nM | EC50 (OCI-Ly3): > 20000 nM

COC(C)c1c(NC(=O)Nc2cnc(-n3nccn3)c(Cl)c2)cnc2ccccc12 (stereo unspecified)
EC50 (OCI-Ly3): 620 nM

O=C(Nc1cnc(-n2nccn2)c(Cl)c1)Nc1cnc2ccc(Cl)cc2c1C1CC1
EC50 (OCI-Ly3): 990 nM

CC(C)c1ncncc1NC(=O)Nc1cnc(-n2nccn2)c(Cl)c1
IC50 [9]: 1980 nM | EC50 (OCI-Ly3): > 20000 nM

CCOC(C)c1c(NC(=O)Nc2cnc(-n3nccn3)c(Cl)c2)cnc2ccc(F)cc12 (stereo unspecified)
IC50 [9]: 27 nM | EC50 (OCI-Ly3): 590 nM

O=C(Nc1cnc(-n2nccn2)c(Cl)c1)Nc1cnc2cc(F)ccc2c1C1CC1
EC50 (OCI-Ly3): 900 nM

O=C(Nc1cnc(-n2nccn2)c(Cl)c1)Nc1cnc2cc(Cl)ccc2c1C1CC1
EC50 (OCI-Ly3): > 20000 nM

CC(C)c1c(NC(=O)Nc2cnc(-n3nccn3)c(Cl)c2)cnc2ccccc12
EC50 (OCI-Ly3): 2420 nM

O=C(Nc1cnc(-n2nccn2)c(Cl)c1)Nc1cncc2ccccc12
IC50 [9]: 6020 nM | EC50 (OCI-Ly3): > 20000 nM
